Test results published in patent US4835160A, “Derivatives of pyridoindole, having anti-tumor properties” (Sanofi, priority 1986, dated 1989).

Assays:
[1] = test system: leukemia tumour line L 1210; experiment: In vitro cytotoxic activity on leukemia tumour line L 1210; format: cell-based; settings: Mus musculus, L1210, 48 h, L 1210, 48 hours contact, 37° C.; read-out: I D 50 (concentration which inhibits the proliferation of the cells by 50%)
In short: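 Exponentially growing L 1210 leukemia cells were exposed to increasing compound concentrations at 37 °C under CO2 and counted every 24 h. ID50, the concentration inhibiting proliferation by 50%, was calculated after 48 h contact.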

reticulosarcoma M5-M5076 = experiment: Test for reticulosarcoma M5-M5076; format: in vivo, BDF1 hybrid mice; settings: D1,5,9,13,17; for Number of survivors: day D75; for T/C %: survival time
Description: (§1) The antitumour activity was tested in vivo on various tumours inoculated in various ways according to the following general protocol:
(§2) All the male or female mice are inoculated on day D0 with a known quantity of viable tumour cells for ascitic tumours or with a known tumour fragment for solid tumours.
(§3) They are then distributed into various groups. Each group, corresponding to the animals treated by the product under test, is made up of 10 mice. The product under test is dissolved in distilled water and it is administered n times (Dx-Dy), n, y, and x varying according to the protocol chosen, at the rate of 0.1 ml of solution per 10 g by weight of mice treated and at specific doses for each protocol.
(§4) The "negative control" group, corresponding to the animals which are not treated by the product, contains 2√N animals, N being equal to or greater than the total number of mice treated by the product in the same experiment.
(§5) Finally, the tests can also be carried out at the same time as the study of a group called "positive control", of ten animals, which is treated by a molecule, known for its antitumour activity and which can vary according to the protocol chosen, in the same conditions as the groups treated by the product under test.
(§6) The antitumour activity is evaluated, in the case of ascitic tumours, by considering the increase in the survival time of the animals treated in comparison to that of the animals in the "negative control" group, according to the formula: [formula]
(§7) Also, a product is considered as toxic at the dose studied when this T/C value is equal to or less than 85%. In addition, a product is also considered as toxic at the dose studied when the weight variation, expressed in grams and calculated by the formula: […]
The tests are carried out with BDF1 hybrid mice inoculated by intraperitoneal route with 10^6 cells of the M5-M5076 line. The compound under test is administered 5 times successively in sequence (D1,5,9,13,17) by intraperitoneal route. The positive control for the test is cyclophosphamide administered in the same conditions. The number of surviving animals is evaluated on day D75.

leukemia L 1210 [2] = experiment: Test for leukemia L 1210, IP/IP, D1-D5; format: in vivo, CDF1 hybrid mice; settings: for Number of survivors: day D60; for T/C %: survival time
Description: as §1, §2, §3, §4, §5, §6, §7
(c) Test for leukemia L 1210, IP/IP, D-5 (GERAN et al., Cancer cheomother.,1972, 2, 07-57).
(§8) The tests are carried out with CDF1 hybrid mice inoculated by intraperitoneal route with 10^5 leukemia cells from the L 1210 line. The compound under test is administered for 5 days (D1-D5) by intraperitoneal route. The positive control for the test is 5-fluorouracile administered in the same conditions. The number of surviving animals is evaluated on day D60.

leukemia L 1210 [3] = experiment: Test for leukemia L 1210 IP/D1 IV; format: in vivo, CDF1 hybrid mice; settings: 20 mg/kg IV
Description: as §1, §2, §3, §4, §5, §6, §7, §8
(g) Test for leukemia L 1210 IP/D1 IV. (GERAN et al., Cancer Chemother., 1972, 2, 07-57).
The test is carried out according to the same protocol as that described for test (c), the compound under test being administered by intravenous route only on day D1.

In the case of `CCN(CC)CCCNc1ncc(C)c2[nH]c3ccc(O)cc3c12` [Derivative No. 7, 1-(diethylaminopropylamino)-8-hydroxy-4-methyl-5H-pyrido[4,3-b]indole], the IC50 [1] is reported as 60 nM, the “Median day of survival” value (reticulosarcoma M5-M5076; 2.5 mg/kg IP) is reported as 31.25 days and the “Variation by weight” value (reticulosarcoma M5-M5076; 2.5 mg/kg IP) is reported as -1.0 g. The Number of survivors (reticulosarcoma M5-M5076; 2.5 mg/kg IP) was 0/10, the T/C % (reticulosarcoma M5-M5076; 2.5 mg/kg IP) was 120% and the “Median day of survival” value (reticulosarcoma M5-M5076; 5 mg/kg IP) was 33.0 days. For the same compound, the “Variation by weight” value (reticulosarcoma M5-M5076; 5 mg/kg IP) was -1.4 g, the Number of survivors (reticulosarcoma M5-M5076; 5 mg/kg IP) was 1/10 and the T/C % (reticulosarcoma M5-M5076; 5 mg/kg IP) was 127%. For the same compound, the “Median day of survival” value (reticulosarcoma M5-M5076; 10 mg/kg IP) was 37.25 days, the “Variation by weight” value (reticulosarcoma M5-M5076; 10 mg/kg IP) was -1.8 g and the Number of survivors (reticulosarcoma M5-M5076; 10 mg/kg IP) was 0/10. For the same compound, the T/C % (reticulosarcoma M5-M5076; 10 mg/kg IP) was 143%, the “Median day of survival” value (reticulosarcoma M5-M5076; 20 mg/kg IP) was 41.0 days and the “Variation by weight” value (reticulosarcoma M5-M5076; 20 mg/kg IP) was -1.9 g. The Number of survivors (reticulosarcoma M5-M5076; 20 mg/kg IP) was 0/10, the T/C % (reticulosarcoma M5-M5076; 20 mg/kg IP) was 158% and the “Median day of survival” value (reticulosarcoma M5-M5076; 40 mg/kg IP) was 42.0 days. For the same compound, the “Variation by weight” value (reticulosarcoma M5-M5076; 40 mg/kg IP) was -1.8 g, the Number of survivors (reticulosarcoma M5-M5076; 40 mg/kg IP) was 1/10 and the T/C % (reticulosarcoma M5-M5076; 40 mg/kg IP) was 161%. For the same compound, the “Median day of survival” value (leukemia L 1210 [2]; 0.625 mg/kg IP) was 11.75 days, the “Variation by weight” value (leukemia L 1210 [2]; 0.625 mg/kg IP) was -0.9 g and the Number of survivors (leukemia L 1210 [2]; 0.625 mg/kg IP) was 0/10. For the same compound, the T/C % (leukemia L 1210 [2]; 0.625 mg/kg IP) was 133%, the “Median day of survival” value (leukemia L 1210 [2]; 1.25 mg/kg IP) was 14.25 days and the “Variation by weight” value (leukemia L 1210 [2]; 1.25 mg/kg IP) was -1.2 g. The Number of survivors (leukemia L 1210 [2]; 1.25 mg/kg IP) was 0/10, the T/C % (leukemia L 1210 [2]; 1.25 mg/kg IP) was 162% and the “Median day of survival” value (leukemia L 1210 [2]; 2.5 mg/kg IP) was 20.75 days. For the same compound, the “Variation by weight” value (leukemia L 1210 [2]; 2.5 mg/kg IP) was -1.1 g, the Number of survivors (leukemia L 1210 [2]; 2.5 mg/kg IP) was 4/10 and the T/C % (leukemia L 1210 [2]; 2.5 mg/kg IP) was 236%. The “Median day of survival” value (leukemia L 1210 [2]; 5 mg/kg IP) was 14.0 days, the “Variation by weight” value (leukemia L 1210 [2]; 5 mg/kg IP) was -0.8 g and the Number of survivors (leukemia L 1210 [2]; 5 mg/kg IP) was 2/10. For the same compound, the T/C % (leukemia L 1210 [2]; 5 mg/kg IP) was 159%, the “Median day of survival” value (leukemia L 1210 [2]; 10 mg/kg IP) was 37.0 days and the “Variation by weight” value (leukemia L 1210 [2]; 10 mg/kg IP) was -2.2 g. For the same compound, the Number of survivors (leukemia L 1210 [2]; 10 mg/kg IP) was 5/10, the T/C % (leukemia L 1210 [2]; 10 mg/kg IP) was 420% and the “Median day of survival” value (leukemia L 1210 [2]; 20 mg/kg IP) was 35.0 days. For the same compound, the “Variation by weight” value (leukemia L 1210 [2]; 20 mg/kg IP) was -4.2 g, the Number of survivors (leukemia L 1210 [2]; 20 mg/kg IP) was 5/10 and the T/C % (leukemia L 1210 [2]; 20 mg/kg IP) was 398%. For the same compound, the “Median day of survival” value (leukemia L 1210 [2]; 30 mg/kg IP) was 8.25 days, the “Variation by weight” value (leukemia L 1210 [2]; 30 mg/kg IP) was -5.6 g and the Number of survivors (leukemia L 1210 [2]; 30 mg/kg IP) was 0/10. The T/C % (leukemia L 1210 [2]; 30 mg/kg IP) was 94%.

For `Cc1cnc(NCCCN(C)C)c2c1[nH]c1ccc(O)cc12` [Derivative No. 10, 1-(3-dimethylaminopropylamino)-8-hydroxy-4-methyl-5H-pyrido[4,3-b]indole], the “Median day of survival” value (reticulosarcoma M5-M5076; 1.25 mg/kg IP) was 34.0 days, the “Variation by weight (g)” value (reticulosarcoma M5-M5076; 1.25 mg/kg IP) was “+2.7 g” and the Number of survivors (reticulosarcoma M5-M5076; 1.25 mg/kg IP) was 1/10. The T/C % (reticulosarcoma M5-M5076; 1.25 mg/kg IP) was 133%, the “Median day of survival” value (reticulosarcoma M5-M5076; 2.5 mg/kg IP) was 33.0 days and the “Variation by weight (g)” value (reticulosarcoma M5-M5076; 2.5 mg/kg IP) was “+0.4 g”. The Number of survivors (reticulosarcoma M5-M5076; 2.5 mg/kg IP) was 1/10, the T/C % (reticulosarcoma M5-M5076; 2.5 mg/kg IP) was 129% and the “Median day of survival” value (reticulosarcoma M5-M5076; 5 mg/kg IP) was 40.0 days. The “Variation by weight (g)” value (reticulosarcoma M5-M5076; 5 mg/kg IP) was “+2.1 g”, the Number of survivors (reticulosarcoma M5-M5076; 5 mg/kg IP) was 1/10 and the T/C % (reticulosarcoma M5-M5076; 5 mg/kg IP) was 156%. For the same compound, the “Median day of survival” value (reticulosarcoma M5-M5076; 10 mg/kg IP) was 42.0 days, the “Variation by weight (g)” value (reticulosarcoma M5-M5076; 10 mg/kg IP) was “+1.2 g” and the Number of survivors (reticulosarcoma M5-M5076; 10 mg/kg IP) was 1/10. The T/C % (reticulosarcoma M5-M5076; 10 mg/kg IP) was 164%, the “Median day of survival” value (reticulosarcoma M5-M5076; 20 mg/kg IP) was 44.75 days and the “Variation by weight” value (reticulosarcoma M5-M5076; 20 mg/kg IP) was 0.0 g. The Number of survivors (reticulosarcoma M5-M5076; 20 mg/kg IP) was 1/10, the T/C % (reticulosarcoma M5-M5076; 20 mg/kg IP) was 175% and the “Median day of survival” value (reticulosarcoma M5-M5076; 40 mg/kg IP) was 46.0 days. The “Variation by weight” value (reticulosarcoma M5-M5076; 40 mg/kg IP) was -2.8 g, the Number of survivors (reticulosarcoma M5-M5076; 40 mg/kg IP) was 2/10 and the T/C % (reticulosarcoma M5-M5076; 40 mg/kg IP) was 180%. For the same compound, the “Median day of survival” value (leukemia L 1210 [2]; 1.25 mg/kg IP) was 12.75 days, the “Variation by weight” value (leukemia L 1210 [2]; 1.25 mg/kg IP) was -1.7 g and the Number of survivors (leukemia L 1210 [2]; 1.25 mg/kg IP) was 1/10. The T/C % (leukemia L 1210 [2]; 1.25 mg/kg IP) was 145%, the “Median day of survival” value (leukemia L 1210 [2]; 2.5 mg/kg IP) was 20.0 days and the “Variation by weight” value (leukemia L 1210 [2]; 2.5 mg/kg IP) was -2.1 g. The Number of survivors (leukemia L 1210 [2]; 2.5 mg/kg IP) was 4/10, the T/C % (leukemia L 1210 [2]; 2.5 mg/kg IP) was 227% and the “Median day of survival” value (leukemia L 1210 [2]; 5 mg/kg IP) was over 60 days. For the same compound, the “Variation by weight” value (leukemia L 1210 [2]; 5 mg/kg IP) was -2.7 g, the Number of survivors (leukemia L 1210 [2]; 5 mg/kg IP) was 6/10 and the T/C % (leukemia L 1210 [2]; 5 mg/kg IP) was over 682%. The “Median day of survival” value (leukemia L 1210 [2]; 10 mg/kg IP) was 15.25 days, the “Variation by weight” value (leukemia L 1210 [2]; 10 mg/kg IP) was -3.1 g and the Number of survivors (leukemia L 1210 [2]; 10 mg/kg IP) was 4/10. For the same compound, the T/C % (leukemia L 1210 [2]; 10 mg/kg IP) was 173%, the “Median day of survival” value (leukemia L 1210 [2]; 20 mg/kg IP) was 8.4 days and the “Variation by weight” value (leukemia L 1210 [2]; 20 mg/kg IP) was -5.6 g. The Number of survivors (leukemia L 1210 [2]; 20 mg/kg IP) was 0/10 and the T/C % (leukemia L 1210 [2]; 20 mg/kg IP) was 95%.

With `Cc1cnc(NCCCN(C)C)c2c3cc(O)ccc3n(C)c12` [Derivative No. 14, 4,5-dimethyl 1(3-dimethylaminopropylamino)-8-hydroxy-5H-pyrido[4,3-b]indole] the IC50 [1] was 14 nM, the “Median day of survival” value (leukemia L 1210 [3]) was 14.0 days and the “Variation by weight” value (leukemia L 1210 [3]) was -1.1 g. For the same compound, the Number of survivors (leukemia L 1210 [3]; day D60) was 0/10 and the T/C % (leukemia L 1210 [3]; survival time) was 157%.
